Patent publication US20220306695A1, “COMPSTATIN ANALOGUES AND THEIR MEDICAL USES” (priority 2019, published 2022)
Positions of bridges follow the written chain, without caps; N, C: chain ends. Non-standard residues stand in square brackets, D forms with d. Residues, ends and D or L forms follow the SMILES beside them. Trp(1-Me) = Cn1cc(C[C@H](N)C(=O)O)c2ccccc21; Sar = CNCC(=O)O

Key:
[1] = Solubility test at 10 mg/mL (visual inspection and light scattering); format: physicochemical; conditions: for Solubility, Condition 1 Acetate pH 4: 10 mg/mL compound in 100 mM acetate pH 4; for Solubility, Condition 2 Acetate pH 5: 10 mg/mL compound in 100 mM acetate pH 5; for Solubility, Condition 3 Phosphate pH 6: 10 mg/mL compound in 100 mM phosphate pH 6; for Solubility, Condition 4 Phosphate pH 7: 10 mg/mL compound in 100 mM phosphate pH 7; for Solubility, Condition 5 Phosphate pH 7.5: 10 mg/mL compound in 100 mM phosphate pH 7.5
[2] = system: classical complement pathway; experiment: In vitro haemolysis assay (inhibition of classical complement pathway); format: cell-based, human; conditions: Table 3; human serum, sensitized sheep red blood cells; read-out: IC50[nM], in vitro analysis of inhibition of hemolysis
Summary of the method: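 Serially diluted compound (9 points) was preincubated 15 min at room temperature with diluted human serum, titrated per batch to give 70-90% maximal haemolysis, in Tris/casein buffer pH 7.4 with Mg2+/Ca2+. Antibody-sensitized sheep erythrocytes were then added for 30 min at 37° C, and the reaction was stopped with EDTA. Haemolysis was read at A405, with IC50 from 4PL fit.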

Structure (SMILES): CC[C@H](C)[C@@H]1NC(=O)[C@@H](NC(=O)[C@H](Cc2ccc(O)cc2)NC(C)=O)CSSC[C@@H](C(=O)N[C@H](C(=O)N[C@@H](CCC(=O)O)C(=O)N[C@@H](C)C(=O)NCC(=O)N[C@@H](CO)C(N)=O)[C@@H](C)O)NC(=O)[C@H](CCCNC(=N)N)NC(=O)[C@H](Cc2c[nH]cn2)NC(=O)[C@H](CCC(=O)O)NC(=O)CNC(=O)[C@H](Cc2c[nH]c3ccccc23)NC(=O)[C@H](CC(=O)O)NC(=O)[C@H](CCC(N)=O)NC(=O)[C@H](Cc2cn(C)c3ccccc23)NC1=O [Compound 68] (Ac-YCI[Trp(1-Me)]QDWGEHRCTEAGS-NH2; disulfide 2-12)
- Solubility, Condition 1 Acetate pH 4 [1]: − (denotes lack of solubility at the given condition, as UV absorbance at 340 nm exceeds 0.1 AU and/or it is visibly turbid or contains particles.)
- Solubility, Condition 2 Acetate pH 5 [1]: − (denotes lack of solubility at the given condition, as UV absorbance at 340 nm exceeds 0.1 AU and/or it is visibly turbid or contains particles.)
- Solubility, Condition 3 Phosphate pH 6 [1]: + (denotes solubility at the given condition, as determined by UV absorbance being less than 0.1 AU at 340 nm and the sample being clear when manually inspected.)
- Solubility, Condition 4 Phosphate pH 7 [1]: + (denotes solubility at the given condition, as determined by UV absorbance being less than 0.1 AU at 340 nm and the sample being clear when manually inspected.)
- Solubility, Condition 5 Phosphate pH 7.5 [1]: + (denotes solubility at the given condition, as determined by UV absorbance being less than 0.1 AU at 340 nm and the sample being clear when manually inspected.)
- IC50 [2]: < 100 nM

Structure (SMILES): CC[C@H](C)[C@@H]1NC(=O)[C@@H](NC(=O)[C@H](Cc2ccccc2)NC(C)=O)CSSC[C@@H](C(=O)N[C@H](C(=O)NCC(=O)N[C@@H](C)C(=O)N[C@@H](CCC(=O)O)C(=O)N[C@@H](CO)C(N)=O)[C@@H](C)O)NC(=O)[C@H](CCCNC(=N)N)NC(=O)[C@H](Cc2c[nH]cn2)NC(=O)[C@H](CCC(=O)O)NC(=O)CN(C)C(=O)[C@H](Cc2c[nH]c3ccccc23)NC(=O)[C@H](CC(=O)O)NC(=O)[C@H](CCC(N)=O)NC(=O)[C@H](Cc2cn(C)c3ccccc23)NC1=O [Compound 72, Ac-FC(1)I[1-Me-Trp]QDW[Sar]EHRC(1)TGAES-NH2] (Ac-FCI[Trp(1-Me)]QDW[Sar]EHRCTGAES-NH2; disulfide 2-12)
- Solubility, Condition 1 Acetate pH 4 [1]: − (denotes lack of solubility at the given condition, as UV absorbance at 340 nm exceeds 0.1 AU and/or it is visibly turbid or contains particles.)
- Solubility, Condition 2 Acetate pH 5 [1]: − (denotes lack of solubility at the given condition, as UV absorbance at 340 nm exceeds 0.1 AU and/or it is visibly turbid or contains particles.)
- Solubility, Condition 3 Phosphate pH 6 [1]: + (denotes solubility at the given condition, as determined by UV absorbance being less than 0.1 AU at 340 nm and the sample being clear when manually inspected.)
- Solubility, Condition 4 Phosphate pH 7 [1]: + (denotes solubility at the given condition, as determined by UV absorbance being less than 0.1 AU at 340 nm and the sample being clear when manually inspected.)
- Solubility, Condition 5 Phosphate pH 7.5 [1]: + (denotes solubility at the given condition, as determined by UV absorbance being less than 0.1 AU at 340 nm and the sample being clear when manually inspected.)
- IC50 [2]: < 100 nM

Structure (SMILES): CC[C@H](C)[C@@H]1NC(=O)[C@@H](NC(=O)[C@H](Cc2ccccc2)NC(=O)[C@H](N)Cc2ccc(O)cc2)CSSC[C@@H](C(=O)N[C@H](C(=O)NCC(=O)N[C@@H](C)C(=O)N[C@@H](CCC(=O)O)C(=O)N[C@@H](CO)C(N)=O)[C@@H](C)O)NC(=O)[C@H](CCCNC(=N)N)NC(=O)[C@H](Cc2c[nH]cn2)NC(=O)[C@H](CCC(=O)O)NC(=O)CN(C)C(=O)[C@H](Cc2c[nH]c3ccccc23)NC(=O)[C@H](CC(=O)O)NC(=O)[C@H](CCC(N)=O)NC(=O)[C@H](Cc2cn(C)c3ccccc23)NC1=O [Compound 73, H-{d}YFC(1)I[1-Me-Trp]QDW[Sar]EHRC(1)TGAES-NH2] (H-[dY]FCI[Trp(1-Me)]QDW[Sar]EHRCTGAES-NH2; disulfide 3-13)
- Solubility, Condition 1 Acetate pH 4 [1]: + (denotes solubility at the given condition, as determined by UV absorbance being less than 0.1 AU at 340 nm and the sample being clear when manually inspected.)
- Solubility, Condition 2 Acetate pH 5 [1]: − (denotes lack of solubility at the given condition, as UV absorbance at 340 nm exceeds 0.1 AU and/or it is visibly turbid or contains particles.)
- Solubility, Condition 3 Phosphate pH 6 [1]: − (denotes lack of solubility at the given condition, as UV absorbance at 340 nm exceeds 0.1 AU and/or it is visibly turbid or contains particles.)
- Solubility, Condition 4 Phosphate pH 7 [1]: + (denotes solubility at the given condition, as determined by UV absorbance being less than 0.1 AU at 340 nm and the sample being clear when manually inspected.)
- Solubility, Condition 5 Phosphate pH 7.5 [1]: + (denotes solubility at the given condition, as determined by UV absorbance being less than 0.1 AU at 340 nm and the sample being clear when manually inspected.)
- IC50 [2]: < 100 nM

Structure (SMILES): CC[C@H](C)[C@@H]1NC(=O)[C@@H](NC(=O)[C@H](Cc2ccccc2)NC(=O)[C@H](CCC(=O)O)NC(=O)[C@H](CO)NC(C)=O)CSSC[C@@H](C(=O)N(C)CC(=O)NCC(=O)N[C@@H](C)C(=O)N[C@@H](CCC(=O)O)C(=O)N[C@@H](CO)C(N)=O)NC(=O)[C@H](CCCNC(=N)N)NC(=O)[C@H](Cc2c[nH]cn2)NC(=O)[C@H](CCC(=O)O)NC(=O)CNC(=O)[C@H](Cc2c[nH]c3ccccc23)NC(=O)[C@H](CC(=O)O)NC(=O)[C@H](CCC(N)=O)NC(=O)[C@H](Cc2cn(C)c3ccccc23)NC1=O [Compound 74] (Ac-SEFCI[Trp(1-Me)]QDWGEHRC[Sar]GAES-NH2; disulfide 4-14)
- Solubility, Condition 1 Acetate pH 4 [1]: − (denotes lack of solubility at the given condition, as UV absorbance at 340 nm exceeds 0.1 AU and/or it is visibly turbid or contains particles.)
- Solubility, Condition 2 Acetate pH 5 [1]: + (denotes solubility at the given condition, as determined by UV absorbance being less than 0.1 AU at 340 nm and the sample being clear when manually inspected.)
- Solubility, Condition 3 Phosphate pH 6 [1]: + (denotes solubility at the given condition, as determined by UV absorbance being less than 0.1 AU at 340 nm and the sample being clear when manually inspected.)
- Solubility, Condition 4 Phosphate pH 7 [1]: + (denotes solubility at the given condition, as determined by UV absorbance being less than 0.1 AU at 340 nm and the sample being clear when manually inspected.)
- Solubility, Condition 5 Phosphate pH 7.5 [1]: + (denotes solubility at the given condition, as determined by UV absorbance being less than 0.1 AU at 340 nm and the sample being clear when manually inspected.)
- IC50 [2]: < 100 nM

Structure (SMILES): CC[C@H](C)[C@@H]1NC(=O)[C@@H](NC(=O)[C@H](Cc2ccccc2)NC(=O)[C@H](CCC(=O)O)NC(=O)[C@H](CO)NC(C)=O)CSSC[C@@H](C(=O)N(C)CC(=O)N[C@@H](CCC(=O)O)C(=O)N[C@@H](C)C(N)=O)NC(=O)[C@H](CCCNC(=N)N)NC(=O)[C@H](Cc2c[nH]cn2)NC(=O)[C@H](CCC(=O)O)NC(=O)CN(C)C(=O)[C@H](Cc2c[nH]c3ccccc23)NC(=O)[C@H](CC(=O)O)NC(=O)[C@H](CCC(N)=O)NC(=O)[C@H](Cc2cn(C)c3ccccc23)NC1=O [Compound 76, Ac-SEFC(1)I[1-Me-Trp]QDW[SarlEHRC(1)[Sar]EA-NH2] (Ac-SEFCI[Trp(1-Me)]QDW[Sar]EHRC[Sar]EA-NH2; disulfide 4-14)
- Solubility, Condition 1 Acetate pH 4 [1]: − (denotes lack of solubility at the given condition, as UV absorbance at 340 nm exceeds 0.1 AU and/or it is visibly turbid or contains particles.)
- Solubility, Condition 2 Acetate pH 5 [1]: − (denotes lack of solubility at the given condition, as UV absorbance at 340 nm exceeds 0.1 AU and/or it is visibly turbid or contains particles.)
- Solubility, Condition 3 Phosphate pH 6 [1]: + (denotes solubility at the given condition, as determined by UV absorbance being less than 0.1 AU at 340 nm and the sample being clear when manually inspected.)
- Solubility, Condition 4 Phosphate pH 7 [1]: + (denotes solubility at the given condition, as determined by UV absorbance being less than 0.1 AU at 340 nm and the sample being clear when manually inspected.)
- Solubility, Condition 5 Phosphate pH 7.5 [1]: + (denotes solubility at the given condition, as determined by UV absorbance being less than 0.1 AU at 340 nm and the sample being clear when manually inspected.)
- IC50 [2]: < 100 nM

Structure (SMILES): CC[C@H](C)[C@@H]1NC(=O)[C@@H](NC(=O)[C@H](Cc2ccccc2)NC(=O)[C@H](CCC(=O)O)NC(=O)[C@H](CO)NC(C)=O)CSSC[C@@H](C(=O)N[C@H](C(=O)N[C@@H](CCC(=O)O)C(=O)N[C@@H](C)C(N)=O)[C@@H](C)O)NC(=O)[C@H](CCCNC(=N)N)NC(=O)[C@H](Cc2c[nH]cn2)NC(=O)[C@H](CCC(=O)O)NC(=O)CN(C)C(=O)[C@H](Cc2c[nH]c3ccccc23)NC(=O)[C@H](CC(=O)O)NC(=O)[C@H](CCC(N)=O)NC(=O)[C@H](Cc2cn(C)c3ccccc23)NC1=O [Compound 77, Ac-SEFC(1)I[1-Me-Trp]QDW[Sar]EHRC(1)TEA-NH2] (Ac-SEFCI[Trp(1-Me)]QDW[Sar]EHRCTEA-NH2; disulfide 4-14)
- Solubility, Condition 1 Acetate pH 4 [1]: − (denotes lack of solubility at the given condition, as UV absorbance at 340 nm exceeds 0.1 AU and/or it is visibly turbid or contains particles.)
- Solubility, Condition 2 Acetate pH 5 [1]: − (denotes lack of solubility at the given condition, as UV absorbance at 340 nm exceeds 0.1 AU and/or it is visibly turbid or contains particles.)
- Solubility, Condition 3 Phosphate pH 6 [1]: + (denotes solubility at the given condition, as determined by UV absorbance being less than 0.1 AU at 340 nm and the sample being clear when manually inspected.)
- Solubility, Condition 4 Phosphate pH 7 [1]: + (denotes solubility at the given condition, as determined by UV absorbance being less than 0.1 AU at 340 nm and the sample being clear when manually inspected.)
- Solubility, Condition 5 Phosphate pH 7.5 [1]: + (denotes solubility at the given condition, as determined by UV absorbance being less than 0.1 AU at 340 nm and the sample being clear when manually inspected.)
- IC50 [2]: < 100 nM
